Tests used:
[1] = system: MCF7 human mammary adenocarcinoma cells; assay: MCF7 breast cancer xenograft model (Study 1 and Study 2); assay type: in vivo; conditions: Compound B 30 mg/kg qd, single agent
Experimental: On day 0, cells were harvested by trypsinization, and 5×10^6 cells (passage 10 and 95.4% viability for Study 1, passage 9 and 90% viability for Study 2) in 100 μL of a solution made of 50% cold Hanks balanced salt solution with 50% growth factor reduced matrigel (R&D Systems for Study 1 and Becton Dickinson for Study 2) implanted subcutaneously into the hindflank of female nude mice.
Compound A was tested both as a single agent and in combination with Compound B, an EGFR inhibitor, in a breast tumor model. The MCF7 human breast carcinoma cell line harbors a heterozygous, activating mutation in PI3K (PI3KCA/E545K) and expresses wild-type EGFR.
Compound B was administered orally once-daily (qd) at 30 mg/kg, and Compound A was administered once-daily at 30 mg/kg or once every other day (q2d) at 100 mg/kg. Combination therapies consisted of Compound B together with Compound A at 30 mg/kg qd or 100 mg/kg q2d.

[2] = system: A549 human lung carcinoma cells; assay: A549 non-small cell lung cancer xenograft model; assay type: in vivo
Experimental: A transponder was implanted in each mouse for identification, and animals were monitored daily for clinical symptoms and survival. Body weights were recorded daily.
Compound A was tested both as a single agent and in combination with Compound B. The A549 human non-small cell lung carcinoma cell line harbors a homozygous stop mutation in the gene encoding LKB1, and an activating G12S mutation in K-Ras, promoting activation of both PI3K and mTOR. A549 cells also express wild-type EGFR.
As a single agent, Compound B, an inhibitor of EGFR, was orally administered once-daily at 30 mg/kg and Compound A was orally administered either at 30 mg/kg qd or 100 mg/kg q2d. Combination therapies consisted of Compound B with Compound A at 30 mg/kg or 100 mg/kg. Administration of each agent in the combination groups was separated by 6 h.

[3] = system: Calu-6 human lung anaplastic carcinoma cells; assay: Calu-6 non-small cell lung cancer xenograft model; assay type: in vivo; conditions: carboplatin 50 mg/kg i.v. q4d, single agent; FIG. 3
Experimental: On day 0, cells were harvested by trypsinization, and 5×10^6 cells (passage #8, 96% viability) in 0.1 mL ice-cold Hank's balanced salt solution were implanted intradermally in the hind-flank of 5-8 week old female athymic nude mice. A transponder was implanted in each mouse for identification, and animals were monitored daily for clinical symptoms and survival. Body weights were recorded daily.
Calu-6 is a human NSCLC cell line that harbors a heterozygous activating mutation in K-Ras (Q61K).

[4] = system: MDA-MB-468 human breast adenocarcinoma cells
Description: (§1) MDA-MB-468 is a human breast carcinoma cell line that has an increase in the copy number of the EGFR gene and a homozygous deletion of PTEN.

[5] = system: MDA-MB-468 cells; conditions: in vitro treatment of MDA-MB-468 cells
Description: as §1

[6] = system: PC-3 human prostate adenocarcinoma cells; assay type: in vivo; conditions: taxol 7.5 mg/kg i.v. twice weekly, single agent; FIG. 1
Experimental: Female and male athymic nude mice (NCr) 5-8 weeks of age and weighing approximately 20-25 g were used in the following model. Prior to initiation of a study, the animals were allowed to acclimate for a minimum of 48 h. During these studies, animals were provided food and water ad libitum and housed in a room conditioned at 70-75° F. and 60% relative humidity. A12 h light and 12 h dark cycle was maintained with automatic timers. All animals were examined daily for compound-induced or tumor-related deaths.
PC-3 human prostate adenocarcinoma cells were cultured in vitro in DMEM (Mediatech) supplemented with 20% Fetal Bovine Serum (Hyclone), Penicillin-Streptomycin and non-essential amino acids at 37° C. in a humidified 5% CO2 atmosphere. […] A transponder was implanted in each mouse for identification, and animals were monitored daily for clinical symptoms and survival. Body weights were recorded daily.
For subcutaneous or intradermal tumors, the mean tumor weight of each animal in the respective control and treatment groups was determined twice weekly during the study. […] Percent inhibition of tumor growth (TGI) is determined with the following formula: […]
[formula] Tumor size is calculated individually for each tumor to obtain a mean±SEM value for each experimental group. Statistical significance is determined using the 2-tailed Student's t-test (significance defined as P<0.05).

[7] = Compound B 30 mg/kg qd, single agent

## COc1cc2c(Nc3ccc(Cl)c(Cl)c3F)ncnc2cc1OC[C@@H]1C[C@@H]2CN(C)C[C@@H]2C1 [Compound B, N-(3,4-dichloro-2-fluorophenyl)-7-({[(3aR,5r,6aS)-2-methyloctahydrocyclopenta-[c]pyrrol-5-yl]methyl}oxy)-6-(methyloxy)quinazolin-4-amine]
[1]
  tolerability: generally well tolerated
[2]; [7]
  body weight loss: 1.5-6.9%
  dose omission: no dose omission
  tolerability: generally well tolerated
[2]; Compound B oral 30 mg/kg once-daily for 18 days, single agent
  tumor growth inhibition: 80%
[2]; single agent administration
  tolerability (summary): well tolerated with minimal dose skipping

## N.N.O=C([O-])C1(C(=O)[O-])CCC1.[Pt+2] [carboplatin]
[3]
  tumor growth inhibition: Significant tumor growth inhibition

## C#Cc1cccc(Nc2ncnc3cc(OCCOC)c(OCCOC)cc23)c1 [erlotinib]
[4]; erlotinib oral 100 mg/kg qd, single agent, FIG. 5
  tumor growth inhibition: significant but incomplete tumor growth inhibition
[4]; mouse, in vivo
  rate of body weight gain: apparent decrease in their rate of body weight gain
[5]
  PI3K pathway: fails to downregulate the PI3K pathway

## CC(=O)O[C@H]1C(=O)[C@@]2(C)[C@H]([C@H](OC(=O)c3ccccc3)[C@]3(O)C[C@H](OC(=O)[C@H](O)[C@@H](NC(=O)c4ccccc4)c4ccccc4)C(C)=C1C3(C)C)[C@]1(OC(C)=O)CO[C@@H]1C[C@@H]2O [taxol, Paclitaxel]
[6]
  tumor growth inhibition: Comparable tumor growth inhibition

Reference: US8481001B2, “Combination therapies comprising quinoxaline inhibitors of P13K-alpha for use in the treatment of cancer” (Exelixis, Inc., priority 2007, dated 2013)
